Test results published in patent US11033520B2, “Liposomal anticancer compositions” (IriSys, LLC, priority 2016, dated 2021).

Columns and labels:
[1] = Total doxorubicin content, recovery and encapsulation efficiency of liposomal suspension (HPLC); assay type: physicochemical; conditions: 50:1 lipid/drug
Description: All HPLC was performed using an Agilent 1260 Infinity system, equipped with a G13110B pump, 01329B autosampler, G1316A column compartment, and a G1315D diode-array detector. OpenLab CDS (EZChrom edition) software controlled all modules and was used for analysis and reporting of chromatography. A Phenomenex Luna C18 column (5μ, 150×4.6 mm; part #00G-4252-E0) was used for all analyses.
Chromatographic analysis of doxorubicin (DOX) was performed on the Agilent 1260 Infinity system using a C18 column (see above) with a column temperature of 40° C. and sample temperature at ambient conditions (˜25° C.). All mobile phase reagents were filtered with a 0.45 μm filter membrane prior to use. HPLC grade acetonitrile was from EMD Millipore. […] Mobile phase flow rate was set to 1.0 mL/min with a run time of 15 minutes. The diode array detector was operated at 487 nm with a bandwidth of 4 nm. Injection volume was set to 10 μL.
Standard stock solution of doxorubicin was prepared in a 0.9% saline, or methanol, or water solution (1 mg/mL). Calibration standards were prepared by diluting the stock solution in anhydrous methanol to bracket the target concentration for analysis. For this study, the doxorubicin solution was diluted with anhydrous methanol or IPA to the final concentration 50 μg/mL, 100 μg/mL and 200 μg/mL; respectively. Samples of liposomal suspension were also diluted with anhydrous methanol or IPA by a factor of 8 or 10 times prior to analysis.
Determination of doxorubicin in liposomal suspension. Followed doxorubicin loading liposomal suspension was subjected to 5× TFF to majorly remove free (not encapsulated) doxorubicin. To determine total doxorubicin concentration at TO (within one week of MFD) TFF washed liposomes were diluted with methanol or IPA and subjected to HPLC analysis. Doxorubicin content, percent of recovery (doxorubicin content in liposomal suspension relative to doxorubicin free base concentration used for remote loading), and encapsulation efficiency (%) are presented in the Table 9. Encapsulation efficiency (%) represents the difference between doxorubicin recovery (%) and free doxorubicin (%).

[2] = counter ion; cited from earlier work
Daudi cells = experiment: In vitro cell-based cytotoxicity assay (Alamar Blue), Daudi cells; conditions: Homo sapiens, 1 hr exposure, 48 hrs culture
Description: (§1) Daudi cells (ATCC, CCL-213). Cells were plated in 96 well plates at the density 100K cells per well. Doxorubicin hydrochloride, Doxil®, or doxorubicin oxalate liposomes were appropriately diluted in Growth medium (RPMI-1640, 10% FBS) and added to the cells. After 1 hr of incubation at 37° C. plates were centrifuged, supernatant was removed via aspiration, 100 μL of fresh media were added into each well, and cells were cultured for 48 hrs.
(§2) On the day, 3 to assess cell viability, Alamar Blue solution was prepared in Growth medium (RPMI-1640, 10% FBS) at 1:250 dilution and added directly into cell media. After 6 hrs of incubation at 37° C. the resulting fluorescence was read on a plate reader. The fluorescence of cells that have not received any drug treatment was defined as maximum viability. The fluorescence of cell free media was defined as complete cell death. Data analysis was performed by using Prism nonlinear regression software (GraphPad Software) for the curve-fitting and determination of IC50 values.

[3] = system: Human B lymphoma cell line Ramos (RA 1); experiment: In vivo study: B lymphoma model in SCID Beige mice; conditions: 3 mg doxorubicin/kg iv x3
Description: On the same day prior to administration into animals cell were counted, centrifuged at 12000 rpm, washed with sterile PBS, centrifuged again at 1200 rpm, resuspended in sterile PBS to the final cell count 35×10-per mL. Suspension of cells was administered into animals intravenously via single bolus injection to deliver 5×10^6 cells per mouse.
Four weeks old immune deficient SCID Beige, (Line—CB17.Cg-Prkdc^scidLyst^bg-J/Crl) mice were maintained on Chow diet. At the age of 8 weeks mice were subdivided in 3 groups. On the day 1, 5×10^6 B lymphoma cells were intravenously injected into each mouse (FIG. 2). […] On the day 2 and 3 all treatments were repeated (FIG. 2). Animals were monitored daily and weighed twice a week.
Treatment articles were administered intravenously in 120 μL via single bolus injection to deliver 60 μg of doxorubicin per mouse or ˜3 mg/kg dose.

nucleus = conditions: within 8 h after administration; cited from earlier work
Hela cells = experiment: cells; assay type: cell-based; conditions: Homo sapiens, read-out: Hela, CC50, μM
Description: as §1, with “Hela” for “Daudi”, “(HeLa (ATCC CCL-2).” for “(ATCC, CCL-213).”, “25K” for “100K”, “(DMEM, 5% FBS, 1% antibiotic, 1% HEPES)” for “(RPMI-1640, 10% FBS)”
as §2

| SMILES | doxorubicin loading into liposomes with this counter ion (in words) ([1]; remote loading at 70° C.) | other results |
| --- | --- | --- |
| CC(=O)O [Acetate] | no doxorubicin loading was observed | – |
| O=C1O[C@H]([C@@H](O)CO)C(O)=C1O [Ascorbate] | no doxorubicin loading was observed | – |
| N[C@@H](CS)C(=O)O [Cysteinate] | no doxorubicin loading was observed | pKa 1 [2]: 1.96; pKa 2 [2]: 8.18 |
| COc1cccc2c1C(=O)c1c(O)c3c(c(O)c1C2=O)C[C@@](O)(C(=O)CO)C[C@@H]3O[C@H]1C[C@H](N)[C@H](O)[C@H](C)O1.Cl [Doxorubicin Hydrochloride, Doxorubicin hydrochloride] | – | CC50 (Daudi cells): 0.4 µM; survival compared to Placebo (in words) [3]: survivors demonstrated longest MST; death rate ([3]; day 13): 50%; drug translocated to / entered the nucleus (nucleus): 26%; CC50 (Hela cells): 7 µM |
| O=CO [Formate] | no doxorubicin loading was observed | – |
| O=C(O)/C=C/C(=O)O [Fumarate] | no doxorubicin loading was observed | – |
| O=C(O)CC(=O)O [Malonate] | no doxorubicin loading was observed | – |

More lines, main results first:

| doxorubicin loading into liposomes with this counter ion (in words) ([1]; remote loading at 70° C.) | SMILES | other results |
| --- | --- | --- |
| no doxorubicin loading was observed | O=C(O)/C=C\C(=O)O [Maleate] | – |
| no doxorubicin loading was observed | CC(=O)N[C@@H](CS)C(=O)O [N-Acetyl- L-cysteine] | doxorubicin loading into liposomes with this counter ion (in words) ([1]; cold loading at room temperature): no doxorubicin loading was observed; pKa 1 [2]: 3.82 |
| no doxorubicin loading was observed | O=C(O)c1ccccn1 [Picolinate] | – |
| no doxorubicin loading was observed | O=C(O)CCC(=O)O [Succinate] | – |
